What was measured:
Format in all cases: in vivo, Golden Syrian hamster
[1] = tested on: Golden Syrian origin LVG hamsters; assay: Example 2 preventive effect model: biochemical data measured in the liver (lipid storage); conditions: end of the 42 days of treatment, HC diet + 3% cyclodextrin
Procedure: (§1) Male LVG golden Syrian hamsters were used for the studies below. The base feed consisted of the food AO4C sold by the company SAFE diet. In the hypercholesterol diets, cholesterol was added (provided by MP Biomedicals)
(§2) Different cyclodextrins were tested • firstly, hydroxypropyl-β-cyclodextrin (HPBCD) sold by the Applicant under the name “KLEPTOSE® HPB” (oral grade); • secondly, methyl-β-cyclodextrin (MCD) “KLEPTOSE® CRYSMEB”, owned by the Applicant.
(§3) In this study, 40 Golden Syrian origin LVG hamsters were divided into 4 groups of 10 and subjected for 6 weeks to the following diets: • “Control” group: normal diet • “Control HC” group: hypercholesterol diet (containing 2.5% by weight of cholesterol) • “HC+Crysmeb” group: hypercholesterol diet (containing 2.5% by weight of cholesterol)+3% by weight of Crysmeb (MCD) • “HC+HPBCD” group: hypercholesterol diet (containing 2.5% by weight of cholesterol)+3% by weight of HPBCD.
Table 3 provides the biochemical data measured in the liver of the animals at the end of the 42 days of treatment.

[2] = tested on: genes involved in de novo lipodogenesis, de novo cholesterol synthesis and cholesterol removal; assay: Example 2: messenger RNA expressed in the liver; conditions: liver mRNA at end of study
Procedure: as §1, §2, §3
The levels of expression of different genes involved in de novo lipodogenesis (FIG. 3) and in de novo cholesterol synthesis (FIG. 5) and cholesterol removal (FIG. 6) were measured in the liver at the end of the study, in the 4 groups of animals.

[3] = Example 2 preventive effect model: body weight and organ weights; conditions: hypercholesterol diet (2.5% cholesterol) + 3% by weight cyclodextrin in feed, end of 42 days, N=10
Procedure: as §1, §2, §3
At the end of 42 days of study, the animals were sacrificed and the weight of the various organs was measured.

[4] = Example 2 preventive effect model: plasma triglyceride levels
Procedure: as §1, §2, §3

## CC(O)COC[C@H]1O[C@@H]2O[C@H]3[C@H](O)[C@@H](O)[C@@H](O[C@H]4[C@H](O)[C@@H](O)[C@@H](O[C@H]5[C@H](O)[C@@H](O)[C@@H](O[C@H]6[C@H](O)[C@@H](O)[C@@H](O[C@H]7[C@H](O)[C@@H](O)[C@@H](O[C@H]8[C@H](O)[C@@H](O)[C@@H](O[C@H]1[C@H](O)[C@H]2O)O[C@@H]8COCC(C)O)O[C@@H]7COCC(C)O)O[C@@H]6COCC(C)O)O[C@@H]5COCC(C)O)O[C@@H]4COCC(C)O)O[C@@H]3COCC(C)O (stereo partly drawn) [HPBCD, hydroxypropyl-β-cyclodextrin]
[1]
  % lipids (g of lipid in liver/animal) (Average): 1.04 g of lipid in liver/animal
  % lipids (g/100 g of liver) D0 (Average): 23.02 g/100 g of liver
  CHOL (mg of chol in liver/animal) (Average): 154.19 mg of chol in liver/animal
  CHOL (mg/g liver) (Average): 32.98 mg/g liver
  TG (mg of TG in liver/animal) (Average): 92.12 mg of TG in liver/animal
  TG (mg/g liver) (Average): 22.73 mg/g liver
[2]; FIG. 3
  expression of genes involved in de novo lipogenesis (FAS, ACC, SCD1, SREBP1): inhibition of the expression of the SCD1 and ACC genes
[2]; FIG. 5
  expression of genes involved in de novo cholesterol synthesis (SREB2, CYP51a1, HMGCR): little effect
[3]
  weight of the adipose tissue of epididymis (Average): 1.4
  weight of the liver (Average): 4.5
[4]; day 0 (beginning of study), HC diet + 3% cyclodextrin
  plasma triglyceride level TG D0 (Average): 3.03
[4]; day 14, HC diet + 3% cyclodextrin
  plasma triglyceride level TG D14 (Average): 1.28
[4]; day 28, HC diet + 3% cyclodextrin
  plasma triglyceride level TG D28 (Average): 1.23
[4]; day 43 (end of study), HC diet + 3% cyclodextrin
  plasma triglyceride level TG D43 (Average): 1.58

— patent publication US20240000827A1, “COMPOSITIONS COMPRISING METHYL CYCLODEXTRINS FOR THE TREATMENT AND/OR PREVENTION OF HEPATIC STEATOSIS” (ROQUETTE FRERES, priority 2020, published 2024)
